Measured values from patent US11852971B2, “Compound, photosensitive resin composition including the same, photosensitive resin layer, color filter and display device” (SAMSUNG SDI CO., LTD., priority 2019, dated 2023).

How the values were obtained:
[1] = Measurement of the shortest wavelength of full width at half maximum (FWHM) with respect to maximum absorption wavelength (absorption spectrum); type: physicochemical; conditions: 0.005 wt % in PGMEA; UV-1800
From the text: The shortest wavelength of the full width at half maximum (FWHM) with respect to the maximum absorption wavelengths denotes a wavelength having the smallest value (a) among the energy widths (Δλ) of the maximum absorption wavelength (b) in the absorption spectrum of a particular phthalocyanine compound. (Refer to the FIGURE)
Evaluation 1: Measurement of the Shortest Wavelength of Full Width at Half Maximum (FWHM) with respect to Maximum Absorption Wavelength
The compounds according to Synthesis Example 1 to Synthesis Example 21 and Comparative Synthesis Example 1 to Comparative Synthesis Example 6 were prepared at a concentration of 0.005 wt % using a diluting solvent (PGMEA). Absorption spectra were obtained for each of the phthalocyanine compounds according to Synthesis Example 1 to […] and Comparative Synthesis Example 1 to Comparative Synthesis Example 6, and the results are shown in Table 1 (UV-1800, SHTMADZU).

[2] = Solubility measurement in dilution solvent (PGMEA); type: physicochemical; conditions: PGMEA added to 0.5 g compound, stirred 100 rpm, one hour, 25° C.
Experimental: Evaluation 2: Solubility Measurement Solubility of the compounds according to Synthesis Examples 11 to 21 and Comparative Synthesis Examples 1 to 6 were measured by adding a dilution solvent (PGMEA) to 0.5 g of each compound and respectively stirring the mixtures (MIXROTAR VMR-5, Iuchi Seiei Dou Co.) at 100 rpm for one hour at 25° C., and the results are shown in Table 2. Solubility Evaluation Criteria Greater than or equal to 10 wt % of a compound (a solute) based on a total amount of a diluting solvent was dissolved: ∘ Less than 10 wt % of a compound (a solute) based on a total amount of a diluting solvent was dissolved: X

| SMILES | The shortest wavelength (nm) of full width at half maximum (FWHM) with respect to maximum absorption wavelength [1] [nm] | Solubility [2] |
| --- | --- | --- |
| CC(C)(C)c1ccccc1Oc1c(Cl)c(Cl)c2c(c1Cl)/C1=N/c3c4c(Cl)c(Cl)c(Cl)c(Cl)c4c4[n]3[Zn][n]3/c(c5ccccc5/c3=N/C2=N1)=N\C1=NC(=N\4)/c2c(Cl)c(Cl)c(Cl)c(Cl)c21 [Synthesis Example 4] | 617 | ○ |
| Cc1ccc(Oc2c(Cl)c(Cl)c3c(c2Cl)/C2=N/c4c5c(Cl)c(Oc6ccc(C)cc6C(C)(C)C)c(Cl)c(Cl)c5c5[n]4[Zn][n]4/c(c6ccccc6/c4=N/C3=N2)=N\C2=NC(=N\5)/c3c(Cl)c(Cl)c(Cl)c(Cl)c32)c(C(C)(C)C)c1 [Synthesis Example 10] | 616 | ○ |
| CC(C)COc1c(Cl)c(Cl)c2c(c1Cl)/C1=N/c3c4c(Cl)c(OCC(C)C)c(Cl)c(Cl)c4c4[n]3[Zn][n]3/c(c5ccccc5/c3=N/C2=N1)=N\C1=NC(=N\4)/c2ccccc21 [Synthesis Example 20] | 611 | ○ |
| CC(C)(C)c1ccccc1Oc1c(Cl)c(Cl)c2c(c1Cl)/C1=N/c3c4c(Cl)c(Oc5ccccc5C(C)(C)C)c(Cl)c(Cl)c4c4[n]3[Zn][n]3/c(c5cc(Cl)c(Cl)cc5/c3=N/C2=N1)=N\C1=NC(=N\4)/c2c(Cl)c(Cl)c(Cl)c(Cl)c21 [Comparative Synthesis Example 5, reference compound] | 625 | X (Less than 10 wt % of a compound (a solute) based on a total amount of a diluting solvent was dissolved) |
| Cc1ccc(Oc2c(Cl)c(Cl)c3c(c2Cl)/C2=N/c4c5c(Cl)c(Oc6ccc(C)cc6C(C)(C)C)c(Cl)c(Cl)c5c5[n]4[Zn][n]4/c(c6ccccc6/c4=N/C3=N2)=N\C2=NC(=N\5)/c3ccccc32)c(C(C)(C)C)c1 [Synthesis Example 11] | 611 | ○ |
